Results reported in US5866087A, “Calixarene derivatives, their preparation process and their use for extracting actinides and lanthanides” (priority 1995, dated 1999).

Tests used:
[1] = liquid-liquid extraction from aqueous nitric solution, distribution coefficient D; assay type: physicochemical; conditions: aqueous HNO3, NaNO3 4 mole/l; for D(distribution coefficient) 237-Np / D(distribution coefficient) 239-Pu / D(distribution coefficient) 241-Am: 1 hour, * = precipitation; for D(distribution coefficient) 152-Eu: pH ≈0, 1 hour contacting
Description: In these examples, an evaluation takes place of the effectiveness of the calixarenes of table 1 for extracting plutonium, neptunium and americium, as well as europium (simulating all the trivalent lanthanides) of an aqueous solution containing one of these elements. The composition of the aqueous solution is as follows:
[…] Contacting takes place in a 20 ml polypropylene tube, which undergoes stirring. After 1 hour of contacting, the two phases are allowed to settle and the activity of each phase is counted by liquid scintillation or α and γ spectrometries.
The distribution coefficient D is then determined and this corresponds to the ratio of the activity of actinide in the organic phase to the activity of actinide in the aqueous phase.

[2] = supported liquid membrane transport into aqueous reextraction solution; assay type: physicochemical
From the text: These examples use the second embodiment of the process according to the invention for extracting europium, neptunium, plutonium and americium from aqueous solutions having the same compositions as those used in examples 7 to 16. These examples use the device shown in the attached drawing.
This device comprises an enclosure 1 subdivided into two compartents 3 and 5 by a supported liquid membrane 7, constituted by a microporous polypropylene membrane marketed under the name CELGARD 2500 and having the following characteristics:
membrane thickness: 0.025 mm.
The pores of this membrane are filled with an organic phase constituted by nitrophenylhexyl ether incorporating 0.001 or 0.0001M of calixarene.
Compartment 3 contains 50 ml of aqueous solution (NaNO3 :4 mole/l, HNO3 : 1mole/l with Eu, Np, Pu, Am); and compartment 5 contains 50ml of an aqueous reextraction solution constituted by an aqueous solution with 1 mole/l of methylene diphosphonic acid.
The two solutions are stirred and the initial activity of the solution of compartment 3 is determined, followed by the activity of the aqueous reextraction solution of compartment 5 by liquid α spectrometry and the operation is continued for one day. From it is deduced the percentage of neptunium, plutonium, americium and europium recovered in the aqueous reextraction solution after 6 and 24 h.
The calixarenes used, the permeability (in cm h^-1) of the membrane to Np and Pu, as well as the %, at the end of 6 and 24 h,of Eu, Am, Np and Pu recovered are given in table 3.

[3] = calixarene 0.0001M in nitrophenyloctylether
[4] = 6 h, supported liquid membrane, 0.001 or 0.0001M calixarene (CMPO 10^-2 M)
[5] = CELGARD 2500 membrane, nitrophenylhexyl ether with 0.001 or 0.0001M calixarene (CMPO 10^-2 M), reextraction 1 mole/l methylene diphosphonic acid
[6] = calixarene 0.001M in nitrophenyloctylether
[7] = 24 h, supported liquid membrane, 0.001 or 0.0001M calixarene (CMPO 10^-2 M)

Row | SMILES | D(distribution coefficient) 237-Np [1, 3] | D(distribution coefficient) 239-Pu [1, 3] | D(distribution coefficient) 241-Am [1, 3] | Percentage transported in 6 h. 237 Np [2, 4] [%] | Percentage transported in 6 h. 239 Pu [2, 4] [%] | Percentage transported in 6 h. 241 Am [2, 4] [%] | Permeability (cm/h) 237 Np [2, 5] [cm/h] | Permeability (cm/h) 239 Pu [2, 5] [cm/h] | Permeability (cm/h) 241 Am [2, 5] [cm/h] | D(distribution coefficient) 152-Eu [1, 6] | D(distribution coefficient) 237-Np [1, 6] | D(distribution coefficient) 239-Pu [1, 6] | D(distribution coefficient) 241-Am [1, 6] | Percentage transported in 6 h. 152 Eu [2, 4] [%] | Percentage of 239Pu transported in 24 h [2, 7] [%] | Percentage transported in 24 h. 152 Eu [2, 7] [%] | Percentage transported in 24 h. 237 Np [2, 7] [%] | Percentage transported in 24 h. 241 Am [2, 7] [%] | Permeability (cm/h) 152 Eu [2, 5] [cm/h]
1 | CCCCCCCCCCCCCCCCOc1c2cc(NC(=O)CP(=O)(c3ccccc3)c3ccccc3)cc1Cc1cc(NC(=O)CP(=O)(c3ccccc3)c3ccccc3)cc(c1OCCCCCCCCCCCCCCCC)Cc1cc(NC(=O)CP(=O)(c3ccccc3)c3ccccc3)cc(c1OCCCCCCCCCCCCCCCC)Cc1cc(NC(=O)CP(=O)(c3ccccc3)c3ccccc3)cc(c1OCCCCCCCCCCCCCCCC)C2 [Compound 4, tetra-O-hexadecyl tetrakis(diphenyl-phosphinaxidoacetamido)calix[4]arene] | 1.1 | 27 | 27 | 21 | 54 | 3 | 0.46 | 1.4 | 0.08 |  |  |  |  |  |  |  |  |  | 
2 | CCCCCCCCCCCCCCOc1c2cc(NC(=O)CP(=O)(c3ccccc3)c3ccccc3)cc1Cc1cc(NC(=O)CP(=O)(c3ccccc3)c3ccccc3)cc(c1OCCCCCCCCCCCCCC)Cc1cc(NC(=O)CP(=O)(c3ccccc3)c3ccccc3)cc(c1OCCCCCCCCCCCCCC)Cc1cc(NC(=O)CP(=O)(c3ccccc3)c3ccccc3)cc(c1OCCCCCCCCCCCCCC)C2 [Compound 3, tetra-O-tetradecyl tetrakis (diphenyl-phosphinoxidoacetamido)calix[4]arene] |  |  |  | 54 | 84 | 98 | 1.3 | 2.95 | 5.3 | > 100 | 1.8 | 90 | > 100 | 90 | 88 | 98 | 62 | 100 | 2.8
3 | CCCCCCCCCCOc1c2cc(NC(=O)CP(=O)(c3ccccc3)c3ccccc3)cc1Cc1cc(NC(=O)CP(=O)(c3ccccc3)c3ccccc3)cc(c1OCCCCCCCCCC)Cc1cc(NC(=O)CP(=O)(c3ccccc3)c3ccccc3)cc(c1OCCCCCCCCCC)Cc1cc(NC(=O)CP(=O)(c3ccccc3)c3ccccc3)cc(c1OCCCCCCCCCC)C2 [Compound 2, tetra-O-decyl tetrakis (diphenyl phosphinoxidoacetamido)calix[4]arene] |  |  |  | 73 | 82 | 95.5 | 3 | 3.6 | 5 | > 100 | 2 | 90 | 100 |  | 83 |  | 80 | 100 | 
